{"source": "patent US20170333591A9", "about": "“ABSORBENT ARTICLE COMPRISING MALODOR REDUCTION COMPOSITIONS” (The Procter & Gamble Company, priority 2014, published 2017)", "data": [{"experiment": "Log of liquid dish neat product liquid-air partition coefficient", "type": "physicochemical", "conditions": "not given", "values": [{"compound": "C=C1[C@H]2CC[C@H](CO)[C@@]23CC[C@H](C3)C1(C)C", "note": "[Material 183]", "Comment Code: Log of liquid dish neat product liquid-air partition coefficient": "K (Log of liquid dish neat product liquid-air partition coefficient greater than or equal to 7)"}, {"compound": "CC1(C)C2CCC3(C2)C1C1(CCC3(C)C)OCCO1", "note": "(stereo not shown) [Material 1144]", "Comment Code: Log of liquid dish neat product liquid-air partition coefficient": "K (Log of liquid dish neat product liquid-air partition coefficient greater than or equal to 7)"}, {"compound": "CC1(C)C2CCC3(C2)C1C1(CCC3(C)C)OCCO1", "note": "(stereo not shown) [Material 1145]", "Comment Code: Log of liquid dish neat product liquid-air partition coefficient": "K (Log of liquid dish neat product liquid-air partition coefficient greater than or equal to 7)"}, {"compound": "C/C=C(\\C)C(=O)OCC/C=C\\CC", "note": "[Material 536]", "Comment Code: Log of liquid dish neat product liquid-air partition coefficient": "K (Log of liquid dish neat product liquid-air partition coefficient greater than or equal to 7)"}, {"compound": "C=CC1(C)Cc2occ(C)c2CC1C(=C)C", "note": "(stereo not shown) [Material 488]", "Comment Code: Log of liquid dish neat product liquid-air partition coefficient": "K (Log of liquid dish neat product liquid-air partition coefficient greater than or equal to 7)"}, {"compound": "CC(C)(C)c1ccc(CC=O)cc1", "note": "[Material 994]", "Comment Code: Log of liquid dish neat product liquid-air partition coefficient": "K (Log of liquid dish neat product liquid-air partition coefficient greater than or equal to 7)"}, {"compound": "CC(C=O)=Cc1ccccc1", "note": "[Material 701]", "Comment Code: Log of liquid dish neat product liquid-air partition coefficient": "K (Log of liquid dish neat product liquid-air partition coefficient greater than or equal to 7)"}, {"compound": "COc1cc(C)cc(O)c1", "note": "[Material 811]", "Comment Code: Log of liquid dish neat product liquid-air partition coefficient": "K (Log of liquid dish neat product liquid-air partition coefficient greater than or equal to 7)"}, {"compound": "CC(=O)O[C@]1(C)CC[C@@]23C[C@@H]1C(C)(C)[C@@H]2CC[C@H]3C", "note": "[Material 567]", "Comment Code: Log of liquid dish neat product liquid-air partition coefficient": "K (Log of liquid dish neat product liquid-air partition coefficient greater than or equal to 7)"}, {"compound": "C/C=C/c1ccc(O)c(OC)c1", "note": "[Material 1084]", "Comment Code: Log of liquid dish neat product liquid-air partition coefficient": "K (Log of liquid dish neat product liquid-air partition coefficient greater than or equal to 7)"}, {"compound": "CC1C(C)(C)C2CCC3CC(C)(C)OC3C2C1(C)C", "note": "(stereo not shown) [Material 680]", "Comment Code: Log of liquid dish neat product liquid-air partition coefficient": "K (Log of liquid dish neat product liquid-air partition coefficient greater than or equal to 7)"}, {"compound": "C=Cc1ccc(O)cc1", "note": "[Material 789]", "Comment Code: Log of liquid dish neat product liquid-air partition coefficient": "K (Log of liquid dish neat product liquid-air partition coefficient greater than or equal to 7)"}]}, {"experiment": "Log of liquid dish neat product liquid-air partition coefficient", "type": "physicochemical", "conditions": "Comment Code letters K and/or L", "values": [{"compound": "CC1(C)C2CCC3(C2)C1C1(CCC3(C)C)OCCO1", "note": "(stereo not shown) [Material 1144]", "Log of liquid dish neat product liquid-air partition coefficient (Comment Code K/L)": "K (Log of liquid dish neat product liquid-air partition coefficient greater than or equal to 7)"}, {"compound": "CC1(C)C2CCC3(C2)C1C1(CCC3(C)C)OCCO1", "note": "(stereo not shown) [Material 1145]", "Log of liquid dish neat product liquid-air partition coefficient (Comment Code K/L)": "K (Log of liquid dish neat product liquid-air partition coefficient greater than or equal to 7)"}]}, {"experiment": "Log of liquid dish neat product liquid-air partition coefficient", "type": "physicochemical", "conditions": "code letter within the Comment Code cell", "values": [{"compound": "C=C1[C@H]2CC[C@H](CO)[C@@]23CC[C@H](C3)C1(C)C", "note": "[Material 183]", "Log of liquid dish neat product liquid-air partition coefficient (Comment Code K/L)": "K (Log of liquid dish neat product liquid-air partition coefficient greater than or equal to 7)"}, {"compound": "c1ccc2occc2c1", "note": "[Material 493]", "Log of liquid dish neat product liquid-air partition coefficient (Comment Code K/L)": "K (Log of liquid dish neat product liquid-air partition coefficient greater than or equal to 7)"}, {"compound": "C=C(C)C1CC=C(C)C(O)C1", "note": "(stereo not shown) [Material 170]", "Log of liquid dish neat product liquid-air partition coefficient (Comment Code K/L)": "K (Log of liquid dish neat product liquid-air partition coefficient greater than or equal to 7)"}, {"compound": "CC(C=O)Cc1cccc(C(C)(C)C)c1", "note": "(stereo not shown) [Material 134]", "Log of liquid dish neat product liquid-air partition coefficient (Comment Code K/L)": "K (Log of liquid dish neat product liquid-air partition coefficient greater than or equal to 7)"}, {"compound": "Cc1cccc(Oc2ccccc2)c1", "note": "[Material 114]", "Log of liquid dish neat product liquid-air partition coefficient (Comment Code K/L)": "K (Log of liquid dish neat product liquid-air partition coefficient greater than or equal to 7)"}, {"compound": "CC(C)C1CCC(C(C)O)CC1", "note": "(stereo not shown) [Material 83]", "Log of liquid dish neat product liquid-air partition coefficient (Comment Code K/L)": "K (Log of liquid dish neat product liquid-air partition coefficient greater than or equal to 7)"}, {"compound": "CC(CCO)CCCC(C)(C)O", "note": "(stereo not shown) [Material 249]", "Log of liquid dish neat product liquid-air partition coefficient (Comment Code K/L)": "K (Log of liquid dish neat product liquid-air partition coefficient greater than or equal to 7)"}, {"compound": "CC(C)=CCCC(C)=CC1OCC(C)O1", "note": "(stereo not shown) [Material 519]", "Log of liquid dish neat product liquid-air partition coefficient (Comment Code K/L)": "K (Log of liquid dish neat product liquid-air partition coefficient greater than or equal to 7)"}, {"compound": "CC1=CCC(C(C)CC=O)CC1", "note": "(stereo not shown) [Material 159]", "Log of liquid dish neat product liquid-air partition coefficient (Comment Code K/L)": "K (Log of liquid dish neat product liquid-air partition coefficient greater than or equal to 7)"}, {"compound": "CC(C)=CCCC(C)=CCC1CCCC1=O", "note": "(racemic) [Material 307]", "Log of liquid dish neat product liquid-air partition coefficient (Comment Code K/L)": "K (Log of liquid dish neat product liquid-air partition coefficient greater than or equal to 7)"}, {"compound": "C=CC1(C)Cc2occ(C)c2CC1C(=C)C", "note": "(stereo not shown) [Material 488]", "Log of liquid dish neat product liquid-air partition coefficient (Comment Code K/L)": "K (Log of liquid dish neat product liquid-air partition coefficient greater than or equal to 7)"}, {"compound": "CCCCCCCCCCCCCCCC(=O)OC", "note": "[Material 109]", "Log of liquid dish neat product liquid-air partition coefficient (Comment Code K/L)": "K (Log of liquid dish neat product liquid-air partition coefficient greater than or equal to 7)"}, {"compound": "CC/C(C)=C/CC/C(C)=C\\C#N", "note": "[Material 158]", "Log of liquid dish neat product liquid-air partition coefficient (Comment Code K/L)": "K (Log of liquid dish neat product liquid-air partition coefficient greater than or equal to 7)"}, {"compound": "CC(O)CCc1ccccc1", "note": "(stereo not shown) [Material 98]", "Log of liquid dish neat product liquid-air partition coefficient (Comment Code K/L)": "K (Log of liquid dish neat product liquid-air partition coefficient greater than or equal to 7)"}, {"compound": "CCCCCCCCCCCCOC(C)=O", "note": "[Material 175]", "Log of liquid dish neat product liquid-air partition coefficient (Comment Code K/L)": "K (Log of liquid dish neat product liquid-air partition coefficient greater than or equal to 7)"}, {"compound": "c1ccc(CCc2ccccc2)cc1", "note": "[Material 457]", "Log of liquid dish neat product liquid-air partition coefficient (Comment Code K/L)": "K (Log of liquid dish neat product liquid-air partition coefficient greater than or equal to 7)"}, {"compound": "CC(C)=CCCC(C)=CCCc1ccncc1", "note": "[Material 135]", "Log of liquid dish neat product liquid-air partition coefficient (Comment Code K/L)": "K (Log of liquid dish neat product liquid-air partition coefficient greater than or equal to 7)"}, {"compound": "CCCCCCCCCC(=O)OCC", "note": "[Material 397]", "Log of liquid dish neat product liquid-air partition coefficient (Comment Code K/L)": "K (Log of liquid dish neat product liquid-air partition coefficient greater than or equal to 7)"}, {"compound": "CCCCCCCCOC(=O)c1ccco1", "note": "[Material 28]", "Log of liquid dish neat product liquid-air partition coefficient (Comment Code K/L)": "K (Log of liquid dish neat product liquid-air partition coefficient greater than or equal to 7)"}, {"compound": "CCCCCC1C(=O)CCC1CC(=O)OC", "note": "(stereo not shown) [Material 113]", "Log of liquid dish neat product liquid-air partition coefficient (Comment Code K/L)": "K (Log of liquid dish neat product liquid-air partition coefficient greater than or equal to 7)"}]}, {"experiment": "Log of liquid dish neat product liquid-air partition coefficient", "type": "physicochemical", "conditions": "code letters K/L of the Comment Code", "values": [{"compound": "CC(C)C1=CCC(C)(O)CC1", "note": "(stereo not shown) [Material 982]", "Log of liquid dish neat product liquid-air partition coefficient (Comment Code)": "K (Log of liquid dish neat product liquid-air partition coefficient greater than or equal to 7)"}, {"compound": "CC(C)c1ccc(CCC=O)cc1", "note": "[Material 826]", "Log of liquid dish neat product liquid-air partition coefficient (Comment Code)": "K (Log of liquid dish neat product liquid-air partition coefficient greater than or equal to 7)"}, {"compound": "CC(=O)O[C@]1(C)CC[C@@]23C[C@@H]1C(C)(C)[C@@H]2CC[C@H]3C", "note": "[Material 567]", "Log of liquid dish neat product liquid-air partition coefficient (Comment Code)": "K (Log of liquid dish neat product liquid-air partition coefficient greater than or equal to 7)"}, {"compound": "C=CC(=C)CCC=C(C)CCC=C(C)C", "note": "[Material 628]", "Log of liquid dish neat product liquid-air partition coefficient (Comment Code)": "K (Log of liquid dish neat product liquid-air partition coefficient greater than or equal to 7)"}, {"compound": "CC1C(C)(C)C2CCC3CC(C)(C)OC3C2C1(C)C", "note": "(stereo not shown) [Material 680]", "Log of liquid dish neat product liquid-air partition coefficient (Comment Code)": "K (Log of liquid dish neat product liquid-air partition coefficient greater than or equal to 7)"}, {"compound": "C=C(C)[C@@H]1CCC2=CCC[C@@H](C)[C@]2(C)C1", "note": "[Material 1105]", "Log of liquid dish neat product liquid-air partition coefficient (Comment Code)": "K (Log of liquid dish neat product liquid-air partition coefficient greater than or equal to 7)"}]}]}
